According to PubChem BioAssay (NCI):
Several values for one entry are separate records, joined by “and”; a condition that tells them apart may be missing. Equal entries are not always repeated.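 Protocol summary: plate cells (96-well), add compound at 5 concentrations, incubate 48 h, interpolate endpoints linearly. Here, GI50 denotes the concentration required for 50% inhibition of growth. TGI marks complete inhibition of growth.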

Columns and labels:
Test in all cases: DTP human tumour cell line panel, 48 h
HT29 colon = test system: HT29 colon
UO-31 renal = test system: UO-31 renal
HS 578T breast = test system: HS 578T breast
RPMI-8226 leukemia = test system: RPMI-8226 leukemia
UACC-257 melanoma = test system: UACC-257 melanoma
NCI-H522 lung = test system: NCI-H522 lung
HOP-62 NSCLC = test system: HOP-62 NSCLC
SNB-19 CNS = test system: SNB-19 CNS

SMILES | GI50 (HT29 colon) | TGI (HT29 colon) | GI50 (UO-31 renal) | TGI (UO-31 renal) | GI50 (HS 578T breast) | TGI (HS 578T breast) | GI50 (RPMI-8226 leukemia) | TGI (RPMI-8226 leukemia) | GI50 (UACC-257 melanoma) | TGI (UACC-257 melanoma) | GI50 (NCI-H522 lung) | TGI (NCI-H522 lung) | GI50 (HOP-62 NSCLC) | TGI (HOP-62 NSCLC) | GI50 (SNB-19 CNS) | TGI (SNB-19 CNS)
CS(=O)(=O)CCNCc1nc(-c2ccc3ncnc(Nc4ccc(OCc5cccc(C(F)(F)F)c5)cc4)c3c2)cs1 | > 17.6 µM | > 25 µM | > 22.6 µM | > 25 µM | 9.11 µM | > 25 µM | > 25 µM | > 25 µM | > 25 µM | > 25 µM | 9.13 µM | > 25 µM | 5.5 µM | 12.9 µM | 11.1 µM | > 25 µM
Cn1cc(-c2csc(-c3c[nH]c4ccc(F)cc34)n2)c2cnccc21 | 1.69 µM | 3.29 µM | 1.42 µM | 2.73 µM | 2.26 µM | 5.08 µM | – | – | 1.96 µM | 3.55 µM | 1.79 µM | 3.29 µM | 1.54 µM | 2.98 µM | 1.95 µM | 3.52 µM
Cn1cc(C2=C(c3cn(CCCCO)c4ccccc34)C(=O)NC2=O)c2ccccc21 | 8.3 µM | > 25 µM | 6.33 µM | > 20.1 µM | 4.87 µM | > 25 µM | 9.23 µM | > 25 µM | 19.8 µM | > 25 µM | 10.4 µM | > 25 µM | 9.95 µM | > 25 µM | 14.7 µM | > 25 µM
COc1cc(-n2cc(-c3ccc(F)cc3)[nH]c2=O)cc(OC)c1OC | > 100 µM | > 100 µM | > 100 µM | > 100 µM | 69.3 µM | > 100 µM | > 100 µM | > 100 µM | > 100 µM | > 100 µM | > 100 µM | > 100 µM | > 100 µM | > 100 µM | > 100 µM | > 100 µM
O=C1Nc2ccccc2/C1=N\[O-].O=C1Nc2ccccc2/C1=N\[O-].[Cu+2] | > 100 µM | > 100 µM | > 100 µM | > 100 µM | > 100 µM | > 100 µM | > 100 µM | > 100 µM | > 100 µM | > 100 µM | > 100 µM | > 100 µM | > 100 µM | > 100 µM | > 100 µM | > 100 µM
Cc1ncc(C(=O)Nc2ccc(CN3CCN(C)CC3)c(C(F)(F)F)c2)cc1C#Cc1cnc(N)c2ccncc12 | 0.432 µM | 2.26 µM | 0.457 µM | 2.27 µM | 0.984 µM | 4.65 µM | 2.18 µM | 5.46 µM | 1.64 µM | 3.33 µM | 1.14 µM | 2.5 µM | 1.38 µM | 3.18 µM | 1.8 µM | 4.62 µM
COc1ccc(C(=O)/C=C/c2cc(-c3cc(OC)c(OC)c(OC)c3)n[nH]2)cc1OC | 1.62 µM | 3.05 µM | 1.28 µM | 2.57 µM | 2.57 µM | 8.2 µM | 0.241 µM | 1.11 µM | 1.49 µM | 2.83 µM | 0.184 µM | 0.39 µM | 1.44 µM | 2.77 µM | 1.42 µM | 3.01 µM
C=CCCCCOc1ccccc1-c1cnc(OCCCCC=C)n1C | 3.22 µM | 10.2 µM | 3.09 µM | 20.7 µM | 4.13 µM | 23.7 µM | 3.22 µM | 14.1 µM | 2.14 µM | 12.9 µM | 2.59 µM | 6.72 µM | 5.13 µM | 20.6 µM | 7.39 µM | 38.1 µM
CCOC(=O)Nc1ccc(C)c(NC(=O)OCC)c1 | – | > 100 µM | – | > 100 µM | – | > 100 µM | – | > 100 µM | – | > 100 µM | – | > 100 µM | – | > 100 µM | – | > 100 µM
O=C(CSc1nc2ccccc2nc1-c1ccccc1)Nc1ccc(F)cc1 | 21.5 µM | 96.5 µM | 45.7 µM | > 100 µM | 28.1 µM | 63.8 µM | 58.5 µM | > 100 µM | 92.8 µM | > 100 µM | 24.2 µM | > 100 µM | 32.6 µM | > 100 µM | 34.5 µM | > 100 µM
O=C(c1ccccc1Br)C(F)(F)F | – | > 100 µM | – | > 100 µM | – | > 100 µM | – | > 100 µM | – | – | – | > 100 µM | – | > 100 µM | – | > 100 µM
NCCNc1c2c(c(NCCN)c3[nH]ccc13)C(=O)c1ccccc1C2=O | 0.0527 µM | 0.634 µM | 13.8 µM | > 60 µM | 0.012 µM | 0.219 µM | 0.278 µM | 1.21 µM | 2.63 µM | 7.5 µM | 1.9 µM | > 100 µM | – | 0.624 µM | 0.206 µM | 1.12 µM
COc1cc(Cn2c(-c3ccccc3)c(Cl)c3c2-c2oncc2CC3)cc(OC)c1 | 3.71 µM | > 100 µM | 4.16 µM | 27.7 µM | 3.71 µM | 82.3 µM | 7.11 µM | > 100 µM | 39.3 µM | > 100 µM | 2.15 µM | 10.1 µM | 44 µM | > 100 µM | 22.8 µM | > 100 µM
COc1cc(-c2cc(-c3cc4c([nH]c5ccccc54)c(-c4cc(OC)c(OC)c(OC)c4)n3)cc(-c3ccccc3)n2)cc(OC)c1OC | 4.03 µM | 25.5 µM | 3.02 µM | 74.4 µM | 6.09 µM | > 100 µM | 2.88 µM | 18.5 µM | 6.14 µM | 44.6 µM | 2.32 µM | 8.01 µM | 4.53 µM | > 100 µM | 9.92 µM | > 100 µM
CCCN1C(=O)N(CCC)C2C1NC(=S)N2/N=C/C=C/c1ccccc1OC (centres undefined) | 0.386 µM | 17.8 µM | 1.26 µM | > 100 µM | 0.478 µM | > 100 µM | 0.69 µM | 16.7 µM | 20.3 µM | > 100 µM | 0.336 µM | 12.7 µM | 0.713 µM | > 100 µM | 1.66 µM | > 100 µM
C=C(Cl)C(Br)(CCl)CCC(Br)C(C)(C)Cl (centres undefined) | – | 4.23 µM | 2.17 µM | 8.19 µM and 4.53 µM | 2.62 µM | > 27.9 µM | – | 3.06 µM | – | 7.78 µM and 8.58 µM | 2.82 µM | 9.26 µM and 6.43 µM | – | 7.66 µM | – | 8.73 µM
COc1ccc(-c2nn(-c3ccc(NC(=O)c4ccc(Cl)c(Cl)c4)cc3)cc2-c2ccncc2)cc1Cl | 1.21 µM | 3.22 µM | 2.07 µM | > 50 µM | 1.05 µM | 3.37 µM | 0.831 µM | > 11.6 µM | > 34.5 µM | > 50 µM | – | > 46.3 µM | 1.62 µM | 17 µM | 4.2 µM | > 50 µM
CN(C)CC[PH+](c1ccccc1)c1ccccc1.CN(C)CC[PH+](c1ccccc1)c1ccccc1.[Cl-].[Pd+2] | > 100 µM | > 100 µM | > 100 µM | > 100 µM | > 100 µM | > 100 µM | 99.8 µM | > 100 µM | > 100 µM | > 100 µM | 73.6 µM | > 100 µM | – | – | > 100 µM | > 100 µM
Nc1c(C(=O)Nc2ccncc2)sc2nc3c(cc12)CCCCCCCC3 | 0.969 µM | 1.79 µM | 0.772 µM | 1.49 µM | 1.08 µM | 2.54 µM | 1.23 µM | 2.71 µM | 0.948 µM | 1.74 µM | – | – | – | – | 0.96 µM | 1.76 µM
COc1cc(F)ccc1-c1ncnc(Nc2cccc(CS(C)(=N)=O)c2)n1 (centres undefined) | 0.642 µM | 6.39 µM | 0.528 µM | > 100 µM | 1.21 µM | 23.9 µM | 3.17 µM | 61 µM | – | – | 1.6 µM | 6.34 µM | 0.564 µM | 8.38 µM | 1.08 µM | > 100 µM
COc1ccc2c(c1)C(=O)c1c-2c(N2CCN(C(=O)CNCCNCCO)CC2)nc2ccccc12 | 1.61 µM | 3.05 µM | 1.89 µM | 4.54 µM | 5.92 µM | 25.7 µM | 2.04 µM | 4.68 µM | 2.83 µM | 6.4 µM | 1.81 µM | 4.08 µM | – | – | 11.1 µM | 28.4 µM
COc1cc2c(cc1OCCCNC(=O)c1cccc3c(=O)c4ccccc4[nH]c13)N=C[C@@H]1CCCN1C2=O | – | > 56.3 µM | – | 16.9 µM | < 0.01 µM | 0.121 µM | – | – | < 0.01 µM | 0.759 µM | – | > 33.6 µM | < 0.01 µM | 0.399 µM | < 0.0206 µM | > 45.7 µM
O=C1C=CC(=O)c2cc3cc(CBr)ccc3cc21 | 2.62 µM | > 100 µM | 3.59 µM | > 100 µM | 28.7 µM | > 93.2 µM | – | – | 56.9 µM | > 100 µM | 4.33 µM | > 25.8 µM | 16 µM | 37.8 µM | 18.1 µM | > 55 µM
C#C[C@]1(O)CCC2C3CCc4cc(O)ccc4C3CC[C@@]21C (some centres undefined) | 3.65 µM | 18.6 µM | 6.81 µM | 28.8 µM | 3.08 µM | 17.7 µM | – | – | 10.4 µM | 41.4 µM | 3.47 µM | 20.5 µM | 4.34 µM | 16.6 µM | 7.59 µM | > 100 µM
